Assay results as given in PubChem BioAssay (NCI).
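Growth conditions: 96-well plates. Treatment: test compound, 48 hours, 5 concentrations. Analysis: linear interpolation between bracketing concentrations; unreached endpoints set to highest concentration. Here, GI50 denotes the concentration required for 50% inhibition of growth. TGI denotes the concentration required for complete inhibition of growth.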

Assays:
Experiment in all cases: DTP human tumour cell line panel, 48 h
[1] = tested on: HOP-62 NSCLC
[2] = tested on: PC-3 prostate
[3] = tested on: HOP-92 NSCLC
[4] = tested on: SF-539 CNS
[5] = tested on: RXF 393 renal
[6] = tested on: SNB-19 CNS
[7] = tested on: OVCAR-3 ovarian
[8] = tested on: UACC-62 melanoma
[9] = tested on: ACHN renal
[10] = tested on: CCRF-CEM leukemia
[11] = tested on: CAKI-1 renal
[12] = tested on: K-562 leukemia
[13] = tested on: IGROV1 ovarian
[14] = tested on: SN12C renal
[15] = tested on: EKVX NSCLC
[16] = tested on: HCC-2998 colon
[17] = tested on: SK-MEL-2 melanoma
[18] = tested on: HCT-15 colon
[19] = tested on: NCI-H226 lung
[20] = tested on: UACC-257 melanoma
[21] = tested on: OVCAR-4 ovarian
[22] = tested on: OVCAR-8 ovarian
[23] = tested on: SK-MEL-5 melanoma
[24] = tested on: HCT-116 colon
[25] = tested on: SF-268 CNS
[26] = tested on: SK-OV-3 ovarian
[27] = tested on: HS 578T breast
[28] = tested on: NCI/ADR-RES ovarian
[29] = tested on: KM12 colon
[30] = tested on: MOLT-4 leukemia
[31] = tested on: DU-145 prostate
[32] = tested on: A549 NSCLC
[33] = tested on: COLO 205 colon
[34] = tested on: MALME-3M melanoma
[35] = tested on: NCI-H23 lung
[36] = tested on: NCI-H460 lung
[37] = tested on: MDA-MB-435
[38] = tested on: SF-295 CNS
[39] = tested on: MDA-MB-231 breast
[40] = tested on: HT29 colon
[41] = tested on: OVCAR-5 ovarian
[42] = tested on: UO-31 renal
[43] = tested on: U251 CNS
[44] = tested on: SK-MEL-28 melanoma
[45] = tested on: RPMI-8226 leukemia
[46] = tested on: SW-620 colon
[47] = tested on: NCI-H522 lung
[48] = tested on: BT-549 breast
[49] = tested on: 786-0 renal
[50] = tested on: TK-10 renal
[51] = tested on: T-47D breast
[52] = tested on: LOX IMVI melanoma
[53] = tested on: MCF7 breast

O=C(CN(/C=C/C(=O)C(F)(F)F)c1ccc(Cl)cc1)c1ccc(F)cc1
GI50 [1]: 30.3 µM | TGI [1]: > 100 µM | GI50 [2]: 11.8 µM | TGI [2]: 25.9 µM | GI50 [3]: 18 µM | TGI [3]: 36.8 µM | GI50 [4]: 18.9 µM | TGI [4]: 37.6 µM | GI50 [5]: 42.9 µM | TGI [5]: > 100 µM | GI50 [6]: 16.2 µM | TGI [6]: 34.2 µM | GI50 [7]: 13 µM | TGI [7]: 28.2 µM | GI50 [8]: 3.04 µM | TGI [8]: 15.2 µM | GI50 [9]: 4.17 µM | TGI [9]: 27 µM | GI50 [10]: 3.39 µM | TGI [10]: 19.8 µM | GI50 [11]: 10.4 µM | TGI [11]: 32.7 µM | GI50 [12]: 2.69 µM | TGI [12]: 22.2 µM | GI50 [13]: 12.5 µM | TGI [13]: 26.2 µM | GI50 [14]: 16.1 µM | TGI [14]: 29.6 µM | GI50 [15]: 19.2 µM | TGI [15]: 43.6 µM | GI50 [16]: 12.9 µM | TGI [16]: 25.7 µM | GI50 [17]: 8.75 µM | TGI [17]: 21.4 µM | GI50 [18]: 4.21 µM | TGI [18]: 21.4 µM | GI50 [19]: 16.2 µM | TGI [19]: 30.7 µM | GI50 [20]: 12.8 µM | TGI [20]: 29.9 µM | GI50 [21]: 15.5 µM | TGI [21]: 38 µM | GI50 [22]: 15.2 µM | TGI [22]: 38.4 µM | GI50 [23]: 14.6 µM | TGI [23]: 27.8 µM | GI50 [24]: 14.5 µM | TGI [24]: 52.3 µM | GI50 [25]: 12.3 µM | TGI [25]: 30 µM | GI50 [26]: 31.5 µM | TGI [26]: 91.1 µM | GI50 [27]: 4.95 µM | TGI [27]: 9.71 µM | GI50 [28]: 14.4 µM | TGI [28]: 31.7 µM | GI50 [29]: 5.61 µM | TGI [29]: 22.7 µM | GI50 [30]: 5.59 µM | TGI [30]: 28.4 µM | GI50 [31]: 16.1 µM | TGI [31]: 40.8 µM | GI50 [32]: 18.7 µM | TGI [32]: 81.1 µM | GI50 [33]: 17.2 µM | TGI [33]: 46.5 µM | GI50 [34]: 13.7 µM | TGI [34]: 28.9 µM | GI50 [35]: 12.9 µM | TGI [35]: 26.2 µM | GI50 [36]: 11.9 µM | TGI [36]: 26.3 µM | GI50 [37]: 12.1 µM | TGI [37]: 32.3 µM | GI50 [38]: 15.2 µM | TGI [38]: 34.1 µM | GI50 [39]: 14.2 µM | TGI [39]: 27.3 µM | GI50 [40]: 17.9 µM | TGI [40]: > 100 µM | GI50 [41]: 23.6 µM | TGI [41]: 53.5 µM | GI50 [42]: 10.9 µM | TGI [42]: 23.3 µM | GI50 [43]: 11 µM | TGI [43]: 23 µM | GI50 [44]: 16.5 µM | TGI [44]: 36.4 µM | GI50 [45]: 10.1 µM | TGI [45]: 51.3 µM | GI50 [46]: 15.1 µM | TGI [46]: 32.7 µM | GI50 [47]: 3.6 µM | TGI [47]: 17.4 µM | GI50 [48]: 15.1 µM | TGI [48]: 35.3 µM | GI50 [49]: 18 µM | TGI [49]: 42.3 µM | GI50 [50]: 18.9 µM | TGI [50]: 74 µM | GI50 [51]: 14.9 µM | TGI [51]: > 100 µM | GI50 [52]: 0.736 µM | TGI [52]: 16.9 µM | GI50 [53]: 14 µM | TGI [53]: 33.2 µM
